Source: ChEMBL document CHEMBL3098089, “Probing the human estrogen receptor-α binding requirements for phenolic mono- and di-hydroxyl compounds: a combined synthesis, binding and docking study” (Bioorg Med Chem, 2014)

Assays:
[1] = biological target: T1, Estrogen receptor beta (Homo sapiens, UniProt Q92731)
[2] = biological target: T1, Estrogen receptor beta; remark: listed apart in the source
[3] = biological target: T2, Estrogen receptor (Homo sapiens, UniProt P03372)
T2 sequence (P03372 whole entry): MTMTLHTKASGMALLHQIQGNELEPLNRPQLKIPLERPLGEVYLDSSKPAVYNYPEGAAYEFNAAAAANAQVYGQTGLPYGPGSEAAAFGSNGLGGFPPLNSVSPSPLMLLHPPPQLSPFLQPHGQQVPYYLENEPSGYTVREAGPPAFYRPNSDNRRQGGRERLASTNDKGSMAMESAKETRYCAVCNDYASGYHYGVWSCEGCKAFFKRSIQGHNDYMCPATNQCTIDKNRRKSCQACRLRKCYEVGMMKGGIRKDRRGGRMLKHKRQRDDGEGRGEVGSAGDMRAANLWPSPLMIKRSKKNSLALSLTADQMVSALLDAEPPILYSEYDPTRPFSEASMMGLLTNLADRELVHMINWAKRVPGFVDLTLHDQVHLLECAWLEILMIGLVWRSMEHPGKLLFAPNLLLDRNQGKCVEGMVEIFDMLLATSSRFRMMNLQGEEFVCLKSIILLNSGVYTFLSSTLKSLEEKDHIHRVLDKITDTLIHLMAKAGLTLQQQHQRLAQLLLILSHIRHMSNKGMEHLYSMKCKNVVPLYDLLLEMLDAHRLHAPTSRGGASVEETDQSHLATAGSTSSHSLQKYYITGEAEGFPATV

[4] = biological target: T2, Estrogen receptor; remark: listed apart in the source

T1 sequence (Q92731 whole entry): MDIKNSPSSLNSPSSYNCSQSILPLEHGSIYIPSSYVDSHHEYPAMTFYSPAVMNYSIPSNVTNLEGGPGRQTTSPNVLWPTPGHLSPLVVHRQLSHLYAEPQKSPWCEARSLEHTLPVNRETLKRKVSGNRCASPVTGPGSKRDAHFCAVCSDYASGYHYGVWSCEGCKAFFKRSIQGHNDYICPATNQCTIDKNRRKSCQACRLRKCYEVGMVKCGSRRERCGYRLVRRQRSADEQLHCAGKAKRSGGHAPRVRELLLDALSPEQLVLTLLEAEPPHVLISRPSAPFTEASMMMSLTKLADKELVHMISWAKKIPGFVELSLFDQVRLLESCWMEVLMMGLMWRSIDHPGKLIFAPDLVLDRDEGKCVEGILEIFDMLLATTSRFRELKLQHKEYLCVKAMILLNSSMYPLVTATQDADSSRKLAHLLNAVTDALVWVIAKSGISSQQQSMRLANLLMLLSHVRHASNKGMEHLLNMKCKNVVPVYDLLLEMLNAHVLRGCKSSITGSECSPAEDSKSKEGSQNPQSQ

Row | SMILES | IC50 [1] | IC50 [2] | Kd [3] | IC50 [4]
1 | C[C@@H](CCO)C1=CC[C@H]2[C@@H]3CCc4cc(O)ccc4[C@H]3CC[C@]12C | 108 nM | 275 nM | 320 nM | 
2 | CCCOC(=O)[C@H]1CC[C@H]2[C@@H]3CCc4cc(O)ccc4[C@H]3CC[C@]12C |  |  | 320 nM | 92 nM
3 | CC[C@H](C)C1=CC[C@H]2[C@@H]3CCc4cc(O)ccc4[C@H]3CC[C@]12C | 88 nM | 70 nM | 160 nM | 
4 | CC1C[C@H](C)C2(CC[C@H]3[C@@H]4CCc5cc(O)ccc5[C@H]4CC[C@@]32C)O1 (stereo partly drawn) | 111 nM |  | 160 nM | 484 nM
5 | C[C@]12CC[C@@H]3c4ccc(O)cc4CC[C@H]3[C@@H]1CC=C2CO | 6.8 nM |  |  | 
6 | OC[C@H]1CCC[C@@H](c2ccc(O)cc2)CC1 (racemic) |  |  | > 1000 nM | 
